Data reported in US7101902B2, “2-guanidinylimidazolidinedione compounds and methods of making and using thereof” (The United States of America as represented by the …, priority 2003, dated 2006).
“And” between values parts separate entries of the source, which are not always exact repeats. Equal entries are not always repeated. “Also recorded” adds a separate entry of the source.

Legend:
Plasmodium yoelii (17×) = assay: Sporozoite induced test in mouse (causal prophylactic activity); assay type: in vivo; settings: sporozoite challenged CD-1 mice; single dose 4 hours before inoculation; oral administration
Method: The causal prophylactic antimalarial activity of the new carbamate derivatives were assessed in a sporozoites challenged mouse model according to the following protocol and the results are shown in Table 4 and Table 5.
Each compound was ground with a mortar and pestle and suspended in 0.5% hydroxyethylcellulose and 0.1% Tween 80 for compounds to be administered PO and those given SC were suspended in peanut oil. Each compound is prepared at 3 different dose levels.
Compounds were administered either PO or SC to mice once 4 hours before inoculation of sporozoites.
Four-week-old male CD-1 mice, purchased from Charles River and weighing about 16 to about 17 grams were placed 5 per cage and allowed to acclimate for 4 days before being treated and then inoculated with sporozoites. They were fed food and water ad-lib and maintained at 76° F. with 12 hour light and 12 hour darkness. The cages and water bottles were changed biweekly. The mice are weighed on Days 0, 3 and 6 then biweekly when blood films were taken.
Plasmodium yoelii (17×) was used to infect mice that will be used to infect the mosquitoes.
Mice were given a single dose of test compound 4 hours before being inoculated intraperitoneally with 2.5×10^5 sporozoites of Plasmodium yoelii on Day 0. Whole body weights were taken on Day 0 and Day 6 then twice a week for 31 days. A blood film was taken on Day 5 and then twice a week for 31 days. Mice loosing greater than about 20% of their body weight were sacrificed. All mice alive on Day 31 with no parasites in a blood film were considered cured. Donor mice used to infect the mosquitoes were infected with 2.5×10^4 parasitized erythrocytes. The mosquitoes were allowed to feed on these malaria-infected mice on Day 4 of their infection when the parasitemia was low.
A compound was considered active against either the sporozoite or the EE stage if no parasites were found in the blood films taken on Day 5 or on subsequent blood films taken weekly for 31 days.
Mice alive on Day 31 with no parasites found in any blood films were considered cured.

[1] = Solubility and characteristics of the compounds in the dosing vehicle; assay type: physicochemical; settings: vehicle DMSO
P. cynomolgi sporozoites = assay: Oral causal prophylactic assay in Rhesus monkey (compound 3 IM; 4b and 3c PO); assay type: in vivo, Plasmodium cynomolgi; settings: per monkey
Method: To test the causal prophylactic intramuscular potency of the purified isomer of compound 3 and oral potency of two carbamate derivatives of 2-guanidinylimidazolidinedione (4b and 3c) the following assay was conducted.
Fourteen rhesus monkeys were issued.
A donor monkey was inoculated intravenously with 1.3 ml, freshly-thawed frozen infected red blood cell (DA310). When the monkey developed gametocytemia, mosquito feedings were conducted on days 15 and 16 after inoculation. The donor monkey was treated with intramuscular chloroquine hydrochloride (CQ) 10 mg/kg, once a day after the second mosquito feeding and continued for 6 days.
On day 0 of the beginning of the assay, each of the 14 monkeys was inoculated intravenously with 1-ml inoculum of suspension containing about 1.0×10^6 P. cynomolgi sporozoites harvested from Anopheles dirus mosquitoes' salivary glands previously fed on the donor monkey.
All monkeys received treatment on days −1, 0 and 1. The control monkeys (Group 1) received HECT orally and the experimental animals received testing compound intramuscularly (Groups 2 and 3) or orally (Groups 4 to 7).

Plasmodium falciparum = settings: cited from earlier work
P. vivax = settings: cited from earlier work

Row | Compound | melting point | Minimum Protective Dose Against P. yoelii (Plasmodium yoelii (17×)) [mg/kg] | Sediment ([1]; dosage 10 mg/kg) | Solubility ([1]; dosage 10 mg/kg) | Supernatant ([1]; dosage 10 mg/kg) | Sediment ([1]; dosage 30 mg/kg) | Solubility ([1]; dosage 30 mg/kg) | Supernatant ([1]; dosage 30 mg/kg) | Day of Parasitemia (P. cynomolgi sporozoites; 10 mg/kg IM) [days] | Result (P. cynomolgi sporozoites; 10 mg/kg IM, 10 mg/kg) | Day of Parasitemia (P. cynomolgi sporozoites; 30 mg/kg IM, 30 mg/kg) | Result (delay the parasitemia) (P. cynomolgi sporozoites; 30 mg/kg IM, 30 mg/kg) | Activity against primary exoerythrocytic forms (Plasmodium falciparum) | Activity against primary exoerythrocytic forms (P. vivax)
1 | CC(C)N1C(=O)C(=O)N=C1NC(=N)Nc1ccc(Cl)c(Cl)c1 [Compound 3, N-(3,4-dichlorophenyl)-N′-(1-isopropyl-4,5-dioxoimidazolidin-2-ylidene)guanidine] | 230 °C and 233 °C | >160 | None | Good | Yellow clear | None | Moderate | Yellow turbid | 8 | not protected; also recorded: No activity | 15 days and 20 days | 7 days and 12 days and did not completely protect the monkeys from malaria | – | –
2 | CC(C)NC(=N)NC(=N)Nc1ccc(Cl)c(Cl)c1 [chlorproguanil] | – | – | – | – | – | – | – | – | – | – | – | – | highly active | highly active
